Results from patent publication US12629408B2, “Peptides with anti-tumor activity” (UNIVERSITA' DEGLI STUDI DI PADOVA, priority 2019, dated 2026).
Like-named read-outs stand apart in the source and are kept apart here. Square brackets hold non-standard residues; d marks the D form. Ends that are not written are not given here. Ahx = NCCCCCC(=O)O; βAla = NCCC(=O)O

Tests used:
[1] = test system: non-tumor tissues; experiment: Autopsy and histological evaluation of internal organs of treated mice
Excerpt: (§2) At the end of each experiment shown in FIGS. 2, 3 and 4, and described in Example 2, male and female Balb/c mice underwent a complete autopsy with the assistance of an anatomopathologist expert. […] The group of mice not receiving any peptide treatment (NaCl) acts as an additional control.
(§3) List of organs or tissues analyzed: heart, skeletal muscle, kidney, spleen, lung, liver, brain, intestine, pancreas, bone marrow, lymph nodes, thyroid gland, parathyroid glands, and adrenal glands.

[2] = test system: HeLa cervical cancer cell line; experiment: Cell viability after treatment with ACPP-HK2 sequence variants; format: cell-based, human; settings: between 5 and 50 μM, 18 or 36 hours
Excerpt: FIGS. 9A and 9B report cell viability after treatment of tumor cells (HeLa cervical cancer cell line) at various concentrations and times with the peptides ACPP-HK2 (SEQ ID NO:1), ACPP-HK2 II (SEQ ID) NO: 8), ACPP-HK2 III (SEQ ID NO: 9) and ACPP-HK2 IV (SEQ ID NO:10).

[3] = test system: murine breast cancer cell line 4T1; experiment: In vivo breast cancer, 4T1 subcutaneous tumor, intraperitoneal injections (FIG. 4); parameters: species or system mice; settings: 4T1, intraperitoneal, 60 nmoles every 12 hours up to 60 hours
Method: In this experiment (FIG. 4), 200,000 murine breast cancer cell line 4T1 were injected subcutaneously into female mice. At 9 days post-inoculation of the cells, the mice were divided into two experimental groups and 60 nmoles of peptides (ACPP-HK2 or ACPP-SCR) dissolved in 500 μl of saline solution were injected intraperitoneally. The injections followed one the other every 12 hours up to 60 hours and at 72 hours the experiment ended.

[4] = test system: non-tumor tissues; settings: mouse, in vivo
Excerpt: as §2, §3

[5] = test system: murine colon carcinoma line CT26; experiment: In vivo colon cancer, CT26 subcutaneous tumor, intraperitoneal injections (FIGS. 2, 3); parameters: species or system Balb/c mice
Method: (§1) 100,000 tumor cells from the murine colon carcinoma line CT26 were injected subcutaneously (in the right flank) to male Balb/c mice. The transplanted cells give rise to a subcutaneous tumor clearly visible from the outside in just over a week. Using this in vivo tumorigenesis procedure, we conducted three different experiments (described below) whose results are represented in FIGS. 1, 2 and 3.
Administration was performed every 12 hours by means of intraperitoneal injections of 500 μl each containing 30 nmoles of peptide (ACPP-HK2 or ACPP-SCR). […] Every 48 hours the size of the tumors was measured externally, and their volumes calculated.
In this experiment, a double dose of peptides (60 nmoles/injection) was administered compared to the second experiment, again by intraperitoneal injection.

[6] = test system: murine colon carcinoma line CT26; experiment: In vivo colon cancer, CT26 subcutaneous tumor, injection into the tumors (FIG. 1); parameters: species or system Balb/c mice
Method: as §1
At 8 days post-cell inoculation, the mice were divided into three groups (FIG. 1) and saline boluses (NaCl) without any other solute, or containing the active form of ACPP-HK2 resulting from the proteolytic cut (pepHK2, 2 nmol/injection), or finally containing the entire ACPP-HK2 (2 nmol/injection) were injected into the tumors. Each bolus consisted of 20 μl solution and was injected every 12 hours up to 60 hours. 72 hours after the start of the treatment, the mice were sacrificed, and the tumor volume was measured.

VGAHAGEYGAEALER βA RRRRRRRRR PLGLAG Ahx EEEEEEEE (VGAHAGEYGAEALER[βAla]RRRRRRRRRPLGLAG[Ahx]EEEEEEEE) [ACPP-SCR, reference compound]
histological characteristics of formalin-fixed sections of internal organs ([1]; mice of the experiments of FIGS. 2, 3 and 4, heart, skeletal muscle, kidney, spleen, lung, liver, brain and others): without finding any differences among different experimental groups (ACPP-SCR and ACPP-HK2) or any tissue alterations

SHLLAYFFTELNHD-RRRRRRRRR-PLGLAG-Ahx-EEEEEEEE (SHLLAYFFTELNHDRRRRRRRRRPLGLAG[Ahx]EEEEEEEE) [ACPP-HK2 IV, variant ACPP-HK2 IV of the peptide ACPP-HK2, 38-amino acid peptide]
cell viability [2]: able to decrease cell viability of cancer cells

MIASHLLAYFFTELN βA RRRRRRRRR PLGLAG Ahx EEEEEEEE (MIASHLLAYFFTELN[βAla]RRRRRRRRRPLGLAG[Ahx]EEEEEEEE) [ACPP-HK2]
tumor growth [3]: almost blocked | tumor volume vs ACPP-SCR control ([3]; end at 72 hours): significantly smaller in volume than control tumors injected with ACPP-SCR | histological characteristics of formalin-fixed sections of internal organs [4]: without finding any differences among different experimental groups (ACPP-SCR and ACPP-HK2) or any tissue alterations | tumor volume vs ACPP-SCR control ([5]; 30 nmoles every 12 hours, after 48 and 96 hours): significantly smaller in volume than the control tumors injected with ACPP-SCR | tumor growth ([5]; 60 nmoles/injection every twelve hours up to the sixtieth hour): strongly reduces, up to almost blocking, tumor growth | cell viability [2]: able to decrease cell viability of cancer cells | tumor growth (tumor volume) ([6]; 2 nmol/injection into the tumors every 12 hours up to 60 hours, measured at 72 hours, vs saline): reduce tumor growth | efficacy on tumor growth, ACPP-HK2 compared with pepHK2 ([6]; 2 nmol/injection into the tumors, 72 hours): more effective | toxic side effect for non-tumor tissues and the whole organism ([1]; expert's conclusion after autopsy and histology): no toxic side effect

SHLLAYFFTELN-RRRRRRRRR-PLGLAG-Ahx-EEEEEEEE (SHLLAYFFTELNRRRRRRRRRPLGLAG[Ahx]EEEEEEEE) [ACPP-HK2 II, variant ACPP-HK2 II of the peptide ACPP-HK2, 36-amino acid peptide]
cell viability [2]: able to decrease cell viability of cancer cells

SHLLAYFFTELN-GRKKRRQRRRG-PLGLAG-Ahx-EEEEEEEE (SHLLAYFFTELNGRKKRRQRRRGPLGLAG[Ahx]EEEEEEEE) [ACPP-HK2 III, variant ACPP-HK2 III of the peptide ACPP-HK2, 38-amino acid peptide]
cell viability [2]: able to decrease cell viability of cancer cells
